Laboratory results: patent publication US20230348376A1 (TEIJIN PHARMA LIMITED, priority 2020, published 2023)
Like-named read-outs stand apart in the source and are kept apart here.

Molecular target: T1, human VDR (Homo sapiens, UniProt P11473)
T1 sequence (P11473 1-427): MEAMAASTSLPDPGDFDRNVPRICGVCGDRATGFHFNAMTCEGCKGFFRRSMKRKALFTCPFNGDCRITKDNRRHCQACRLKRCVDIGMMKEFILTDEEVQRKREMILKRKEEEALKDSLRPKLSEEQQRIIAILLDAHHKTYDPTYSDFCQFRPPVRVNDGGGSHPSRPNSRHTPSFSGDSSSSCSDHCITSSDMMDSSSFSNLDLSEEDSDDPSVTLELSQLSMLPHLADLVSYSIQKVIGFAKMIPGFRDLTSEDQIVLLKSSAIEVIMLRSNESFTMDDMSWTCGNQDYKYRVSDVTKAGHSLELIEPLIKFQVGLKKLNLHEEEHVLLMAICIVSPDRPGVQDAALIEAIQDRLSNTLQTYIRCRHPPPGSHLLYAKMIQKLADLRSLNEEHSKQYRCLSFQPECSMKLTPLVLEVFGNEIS
T1 sequence (P19793 1-462 partner): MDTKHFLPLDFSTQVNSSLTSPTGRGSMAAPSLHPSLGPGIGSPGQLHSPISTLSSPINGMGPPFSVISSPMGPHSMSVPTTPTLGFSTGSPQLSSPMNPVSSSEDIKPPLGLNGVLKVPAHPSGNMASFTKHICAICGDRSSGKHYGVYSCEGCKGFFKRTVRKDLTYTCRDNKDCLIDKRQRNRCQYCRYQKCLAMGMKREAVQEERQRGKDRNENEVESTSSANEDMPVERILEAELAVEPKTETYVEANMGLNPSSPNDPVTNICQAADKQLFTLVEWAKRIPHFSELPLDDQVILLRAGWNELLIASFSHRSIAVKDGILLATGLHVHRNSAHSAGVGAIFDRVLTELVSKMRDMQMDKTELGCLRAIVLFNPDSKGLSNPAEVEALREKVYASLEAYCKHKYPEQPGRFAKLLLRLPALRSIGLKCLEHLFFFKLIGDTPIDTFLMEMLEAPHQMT
Assay: Evaluation of VDR transcription activity in human osteoblasts (HOS cells), luciferase reporter
Conditions: HOS cells transfected with human VDR, human RXRα and DR3 luciferase reporter, 21 hours

[1] = Activity (EC50, VDR transcription activity)

Compound | EC50 [1] | EC50 (read-out: Activity (EC50, VDR transcription activity))
C=C1/C(=C\C=C2/CCC[C@]3(C)[C@@H]([C@H](C)CN4CC[C@H](OC(F)(F)F)C4)CC[C@@H]23)C[C@@H](O)C[C@@H]1O [Compound B065, (1R,3S,Z)-5-(2-((1R,3aS,7aR,E)-7a-methyl-1-((S)-1-((S)-3-(trifluoromethoxy)pyrrolidin-1-yl)propan-2-yl)octahydro-4H-inden-4-ylidene)ethylidene)-4-methylenecyclohexane-1,3-diol] | 10 to 100 nM | 
C[C@@H](CN1CC[C@@H](CC(F)F)C1)[C@H]1CC[C@H]2/C(=C/C=C3CC(O)C[C@H](O)C3)CCC[C@]12C (stereo in doubt) [Compound B103, (1R,3 S)-5-(2-((1R,3aS,7aR,E)-1-((R)-1-((S)-3-(2,2-difluoroethyl)pyrrolidin-1-yl)propan-2-yl)-7a-methyloctahydro-4H-inden-4-ylidene)ethylidene)cyclohexane-1,3-diol] | 10 to 100 nM | 
C[C@H](CN1CC[C@H](CCC(F)F)C1)[C@H]1CC[C@H]2/C(=C/C=C3C[C@@H](O)C[C@H](O)C3)CCC[C@]12C [Compound B063, (1R,3R)-5-(2-((1R,3aS,7aR,E)-1-((S)-1-((S)-3-(3,3-difluoropropyl)pyrrolidin-1-yl)propan-2-yl)-7a-methyloctahydro-4H-inden-4-ylidene)ethylidene)cyclohexane-1,3-diol] | 10 to 100 nM | 
C[C@H](CCN1CC(OC(F)F)C1)[C@H]1CC[C@H]2/C(=C/C=C3C[C@@H](O)C[C@H](O)C3)CCC[C@]12C [Compound A025, (1R,3R)-5-(2-((1R,3aS,7aR,E)-1-((R)-4-(3-(difluoromethoxy)azetidin-1-yl)butan-2-yl)-7a-methyloctahydro-4H-inden-4-ylidene)ethylidene)cyclohexane-1,3-diol] | 100 to 1000 nM | 
C=C1C(O)CC(=C/C=C2\CCC[C@]3(C)[C@@H]([C@H](C)CN4CC[C@@H](OC(F)(F)F)C4)CC[C@@H]23)C[C@H]1O (stereo in doubt) [Compound B068, (1R,3S)-5-(2-((1R,3aS,7aR,E)-7a-methyl-1-((S)-1-((R)-3-(trifluoromethoxy)pyrrolidin-1-yl)propan-2-yl)octahydro-4H-inden-4-ylidene)ethylidene)-2-methylenecyclohexane-1,3-diol] | 1 to 10 nM | 
C[C@H](CCCN1CC[C@@H](F)C1)[C@H]1CC[C@H]2/C(=C/C=C3C[C@@H](O)C[C@H](O)C3)CCC[C@]12C [Compound B017, (1R,3R)-5-(2-((1R,3aS,7aR,E)-1-((R)-5-((R)-3-fluoropyrrolidin-1-yl)pentan-2-yl)-7a-methyloctahydro-4H-inden-4-ylidene)ethylidene)cyclohexane-1,3-diol] | 10 to 100 nM | 
C=C1/C(=C\C=C2/CCC[C@]3(C)[C@@H]([C@H](C)CN4CCC(O)(C(F)(F)F)C4)CC[C@@H]23)C[C@@H](O)C[C@@H]1O (single isomer, unassigned) [Compound B044b] |  | < 1 nM
C=C1[C@H](O)CC(=C/C=C2\CCC[C@]3(C)[C@@H]([C@H](C)CCN4CC(OC(F)F)C4)CC[C@@H]23)C[C@H]1O [Compound A030, (1R,3R)-5-(2-((1R,3aS,7aR,E)-1-((R)-4-(3-(difluoromethoxy)azetidin-1-yl)butan-2-yl)-7a-methyloctahydro-4H-inden-4-ylidene)ethylidene)-2-methylenecyclohexane-1,3-diol] | 10 to 100 nM | 
C=C1[C@H](O)CC(=C/C=C2\CCC[C@]3(C)[C@@H]([C@H](C)CN4CC[C@@H](OCC(F)F)C4)CC[C@@H]23)C[C@H]1O [Compound B056, (1R,3R)-5-(2-((1R,3aS,7aR,E)-1-((S)-1-((R)-3-(2,2-difluoroethoxy)pyrrolidin-1-yl)propan-2-yl)-7a-methyloctahydro-4H-inden-4-ylidene)ethylidene)-2-methylenecyclohexane-1,3-diol] | 10 to 100 nM | 
C[C@H](CN1CC(OC(F)(F)F)C1)[C@H]1CC[C@H]2/C(=C/C=C3C[C@@H](O)C[C@H](O)C3)CCC[C@]12C [Compound A013] | 100 to 1000 nM | 
C[C@@H](CN1CC[C@H](C(C)(F)F)C1)[C@H]1CC[C@H]2/C(=C/C=C3CC(O)C[C@H](O)C3)CCC[C@]12C (stereo in doubt) [Compound B101, (1R,3S)-5-(2-((1R,3aS,7aR,E)-1-((R)-1-((S)-3-(1,1-difluoroethyl)pyrrolidin-1-yl)propan-2-yl)-7a-methyloctahydro-4H-inden-4-ylidene)ethylidene)cyclohexane-1,3-diol] | 10 to 100 nM | 
C[C@H](CN1CC[C@](C)(O)C1)[C@H]1CC[C@H]2/C(=C/C=C3CC(O)C[C@H](O)C3)CCC[C@]12C (stereo in doubt) [Compound B072, (1R,3 S)-5-(2-((1R,3aS,7aR,E)-1-((S)-1-((S)-3-hydroxy-3-methylpyrrolidin-1-yl)propan-2-yl)-7a-methyloctahydro-4H-inden-4-ylidene)ethylidene)cyclohexane-1,3-diol] | 10 to 100 nM | 
C=C1/C(=C\C=C2/CCC[C@]3(C)[C@@H]([C@@H](C)CN4CC[C@H](C)C4)CC[C@@H]23)C[C@@H](O)C[C@@H]1O [Compound B010, (1R,3S,Z)-5-(2-((1R,3aS,7aR,E)-7a-methyl-1-((R)-1-((S)-3-methylpyrrolidin-1-yl)propan-2-yl)octahydro-4H-inden-4-ylidene)ethylidene)-4-methylenecyclohexane-1,3-diol] | 10 to 100 nM | 
C=C1/C(=C\C=C2/CCC[C@]3(C)[C@@H]([C@@H](C)CN4CC[C@@H](C)C4)CC[C@@H]23)C[C@@H](O)C[C@@H]1O [Compound B011, (1R,3S,Z)-5-(2-((1R,3aS,7aR,E)-7a-methyl-1-((R)-1-((R)-3-methylpyrrolidin-1-yl)propan-2-yl)octahydro-4H-inden-4-ylidene)ethylidene)-4-methylenecyclohexane-1,3-diol] | 10 to 100 nM | 

Results, then the molecule that gave them:

EC50 [1] | EC50 (read-out: Activity (EC50, VDR transcription activity)) | Compound
100 to 1000 nM |  | C=C1/C(=C\C=C2/CCC[C@]3(C)[C@@H]([C@H](C)CN4CCC(O)(C(F)F)CC4)CC[C@@H]23)C[C@@H](O)C[C@@H]1O [Compound C021, (1R,3S,Z)-5-(2-((1R,3aS,7aR,E)-1-((S)-1-(4-(difluoromethyl)-4-hydroxypiperidin-1-yl)propan-2-yl)-7a-methyloctahydro-4H-inden-4-ylidene)ethylidene)-4-methylenecyclohexane-1,3-diol]
1 to 10 nM |  | C=C1[C@H](O)CC(=C/C=C2\CCC[C@]3(C)[C@@H]([C@H](C)CN4CCOC(C)(C)C4)CC[C@@H]23)C[C@H]1O [Compound D014, (1R,3R)-5-(2-((1R,3aS,7aR,E)-1-((S)-1-(2,2-dimethylmorpholino)propan-2-yl)-7a-methyloctahydro-4H-inden-4-ylidene)ethylidene)-2-methylenecyclohexane-1,3-diol]
< 1 nM |  | C=C1[C@H](O)CC(=C/C=C2\CCC[C@]3(C)[C@@H]([C@H](C)CN4CCCC(O)(CC)C4)CC[C@@H]23)C[C@H]1O (single isomer, unassigned) [Compound C046a]
1 to 10 nM |  | C=C1[C@H](O)CC(=C/C=C2\CCC[C@]3(C)[C@@H]([C@H](C)CCN4CCO[C@@H](C(F)F)C4)CC[C@@H]23)C[C@H]1O [Compound D036, (1R,3R)-5-(2-((1R,3aS,7aR,E)-1-((R)-4-((R)-2-(difluoromethyl)morpholino)butan-2-yl)-7a-methyloctahydro-4H-inden-4-ylidene)ethylidene)-2-methylenecyclohexane-1,3-diol]
10 to 100 nM |  | C=C1/C(=C\C=C2/CCC[C@]3(C)[C@@H]([C@H](C)CN4CCO[C@@H](C(F)F)C4)CC[C@@H]23)C[C@@H](O)C[C@@H]1O [Compound D006, (1R,3S,Z)-5-(2-((1R,3aS,7aR,E)-1-((S)-1-((R)-2-(difluoromethyl)morpholino)propan-2-yl)-7a-methyloctahydro-4H-inden-4-ylidene)ethylidene)-4-methylenecyclohexane-1,3-diol]
10 to 100 nM |  | C=C1/C(=C\C=C2/CCC[C@]3(C)[C@@H]([C@H](C)CN4CCC[C@H](C(F)F)C4)CC[C@@H]23)C[C@@H](O)C[C@@H]1O [Compound C048, (1R,3S,Z)-5-(2-((1R,3aS,7aR,E)-1-((S)-1-((S)-3-(difluoromethyl)piperidin-1-yl)propan-2-yl)-7a-methyloctahydro-4H-inden-4-ylidene)ethylidene)-4-methylenecyclohexane-1,3-diol]
< 1 nM |  | C=C1/C(=C\C=C2/CCC[C@]3(C)[C@@H]([C@H](C)CN4CCCC(O)(CC)C4)CC[C@@H]23)C[C@@H](O)C[C@@H]1O (single isomer, unassigned) [Compound C042a]
